The values below come from PubChem BioAssay AID248 (DTP/NCI, 2004).

This experiment concerns L1210 leukemia ip in BDF1 mice, survival T/C. The experiment can be described thus: NCI In Vivo Anticancer Drug Screen. Data for tumor model L1210 Leukemia (intraperitoneal) in B6D2F1 (BDF1) mice. The following applies: endpoint: mean survival time, higher = longer survival. In outline: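 Tumor cells were implanted, animals were treated, and survival was followed. The result divides the treated measurement by the vehicle-control measurement.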

Where [1] appears, read: dose: 100.0 mg/kg/injection, schedule: Q04DX003 (ip), vehicle: saline.
Setting [2] is: dose: 200.0 mg/kg/injection, schedule: Q04DX003 (ip), vehicle: saline.
Where [3] appears, read: dose: 100.0 mg/kg/injection, schedule: Q04DX003 (ip), vehicle: Klucel (hydroxypropylcellulose) (HPC).
[4] abbreviates: dose: 200.0 mg/kg/injection, schedule: Q04DX003 (ip), vehicle: Klucel (hydroxypropylcellulose) (HPC).
Where [5] appears, read: dose: 400.0 mg/kg/injection, schedule: Q04DX003 (ip), vehicle: Klucel (hydroxypropylcellulose) (HPC).

Inconclusive results and toxic doses are left out.

Take `S=C(Nc1ccc(C2=NCCN2)cc1)c1ccc(C(=S)Nc2ccc(C3=NCCN3)cc2)cc1`: the T/C (dose: 1.0 mg/kg/injection, schedule: Q01DX Z (ip), vehicle: saline) is 108 % of control; the T/C (dose: 2.0 mg/kg/injection, schedule: Q01DX Z (ip), vehicle: saline) was 108 % of control; the T/C (dose: 4.0 mg/kg/injection, schedule: Q01DX Z (ip), vehicle: saline) is 124 % of control; the T/C (dose: 15.0 mg/kg/injection, schedule: Q01DX Z (ip), vehicle: carboxymethylcellulose (CMC)) is 219 % of control; the T/C (dose: 30.0 mg/kg/injection, schedule: Q01DX Z (ip), vehicle: carboxymethylcellulose (CMC)) was 182 % of control; the T/C (dose: 30.0 mg/kg/injection, schedule: Q01DX Z (oral), vehicle: saline) was 103 % of control. The T/C (dose: 60.0 mg/kg/injection, schedule: Q01DX Z (ip), vehicle: carboxymethylcellulose (CMC)) is 171 % of control; the T/C (dose: 60.0 mg/kg/injection, schedule: Q01DX Z (oral), vehicle: saline) was 101 % of control; the T/C (dose: 120.0 mg/kg/injection, schedule: Q01DX Z (oral), vehicle: saline) was 98 % of control; the T/C (dose: 240.0 mg/kg/injection, schedule: Q01DX Z (oral), vehicle: saline) was 101 % of control; the T/C (dose: 480.0 mg/kg/injection, schedule: Q01DX Z (oral), vehicle: saline) was 101 % of control; the T/C (dose: 960.0 mg/kg/injection, schedule: Q01DX Z (oral), vehicle: saline) is 101 % of control.
Regarding `O=c1[nH]nc(/C=C/c2ccccc2)o1`, the T/C was 103 % of control (dose: 50.0 mg/kg/injection, schedule: Q04DX003 (ip), vehicle: saline); 95 % of control under setting [1]; 97 % of control under setting [2].
Consider `CNC(=O)NCC1OC(OC)C(O)C(O)C1O` (configuration not stated), for which the T/C by setting is: under setting [3], 100 % of control; under setting [4], 107 % of control; under setting [5], 100 % of control.
As to `CC(C)(O)CNC1CCCCC1`, the T/C (dose: 75.0 mg/kg/injection, schedule: Q01DX001 (ip), vehicle: saline) is 108 % of control.
For `COc1ccc(OC)c(C(=O)CSC(=S)OC(C)C)c1`, the T/C reads like this: (dose: 100.0 mg/kg/injection, schedule: Q04DX002 (ip), vehicle: Klucel (hydroxypropylcellulose) (HPC)) 96 % of control; (dose: 200.0 mg/kg/injection, schedule: Q04DX002 (ip), vehicle: Klucel (hydroxypropylcellulose) (HPC)) 92 % of control; (dose: 400.0 mg/kg/injection, schedule: Q04DX002 (ip), vehicle: Klucel (hydroxypropylcellulose) (HPC)) 96 % of control.
For the compound `CCCCCCCCCCCCCCCCCC1=NCC[N+]1(CCO)Cc1ccccc1` (configuration not stated) (tested in a mixture with another compound), the T/C (dose: 12.5 mg/kg/injection, schedule: Q04DX003 (ip), vehicle: saline with Tween-80) is 98 % of control and the T/C (dose: 25.0 mg/kg/injection, schedule: Q04DX003 (ip), vehicle: saline with Tween-80) was 101 % of control.
`CCCCN(CC)CCNc1cc(C)nc(/N=C(\N)Nc2ccc(Cl)c(Cl)c2)n1`: the T/C is 102 % of control (dose: 18.75 mg/kg/injection, schedule: Q01DX009 (ip), vehicle: Klucel (hydroxypropylcellulose) (HPC)) and 88 % of control (dose: 37.5 mg/kg/injection, schedule: Q01DX009 (ip), vehicle: Klucel (hydroxypropylcellulose) (HPC)).
Consider `Cc1ccc(S(=O)(=O)O)cn1`, for which the T/C by setting is: (dose: 100.0 mg/kg/injection, schedule: Q01DX001 (ip), vehicle: saline) 94 % of control; (dose: 200.0 mg/kg/injection, schedule: Q01DX001 (ip), vehicle: saline) 97 % of control; (dose: 400.0 mg/kg/injection, schedule: Q01DX001 (ip), vehicle: saline) 92 % of control.
Turning to `C/C(=N\N(C)C)C(=O)OC(C)(C)C`, the T/C under setting [1] was 107 % of control; the T/C under setting [2] was 98 % of control; the T/C (dose: 400.0 mg/kg/injection, schedule: Q04DX003 (ip), vehicle: saline) was 96 % of control.
With `NC(=O)c1ccccc1Nc1ccc([N+](=O)[O-])cc1[N+](=O)[O-]`, the T/C (dose: 34.0 mg/kg/injection, schedule: Q01DX Z (ip), vehicle: carboxymethylcellulose (CMC)) was 95 % of control and the T/C (dose: 49.0 mg/kg/injection, schedule: Q01DX Z (ip), vehicle: carboxymethylcellulose (CMC)) is 95 % of control.
Turning to `COc1ccccc1NC(=O)Oc1c(C(C)C)cccc1C(C)C`, the T/C is 94 % of control (dose: 100.0 mg/kg/injection, schedule: Q01DX009 (ip), vehicle: Klucel (hydroxypropylcellulose) (HPC)); 95 % of control under setting [3]; 97 % of control (dose: 200.0 mg/kg/injection, schedule: Q01DX009 (ip), vehicle: Klucel (hydroxypropylcellulose) (HPC)); 102 % of control under setting [4]; 106 % of control (dose: 400.0 mg/kg/injection, schedule: Q01DX009 (ip), vehicle: Klucel (hydroxypropylcellulose) (HPC)); 94 % of control under setting [5].
`C/C(=N\Nc1cccc(N)c1)c1ccccc1`: the T/C (dose: 25.6 mg/kg/injection, schedule: Q04DX002 (ip), vehicle: saline with Tween-80) was 89 % of control and the T/C (dose: 64.0 mg/kg/injection, schedule: Q04DX002 (ip), vehicle: saline with Tween-80) is 89 % of control.
